Tests used:
[1] = target: Serine/threonine-protein kinase SIK3 (Homo sapiens) (UniProt Q9Y2K2); test: Selectivity interaction (Ambit KINOMEscan and KiNATiv profiling in Jurkat cells) EUB0000090b SIK3; format: cell-based; details: at 1 µM
[2] = target: TRAF2 and NCK-interacting protein kinase (Homo sapiens) (UniProt Q9UKE5); details: at 10 µM
[3] = target: T1, Cyclin-dependent kinase 11A (Homo sapiens) (UniProt Q9UQ88); test: Selectivity interaction (ActivX KiNativ screen (kinase selectivity in THP-1 cell lysates)) EUB0000639a CDK11A; format: subcellular; details: lysate
T1 sequence (whole entry): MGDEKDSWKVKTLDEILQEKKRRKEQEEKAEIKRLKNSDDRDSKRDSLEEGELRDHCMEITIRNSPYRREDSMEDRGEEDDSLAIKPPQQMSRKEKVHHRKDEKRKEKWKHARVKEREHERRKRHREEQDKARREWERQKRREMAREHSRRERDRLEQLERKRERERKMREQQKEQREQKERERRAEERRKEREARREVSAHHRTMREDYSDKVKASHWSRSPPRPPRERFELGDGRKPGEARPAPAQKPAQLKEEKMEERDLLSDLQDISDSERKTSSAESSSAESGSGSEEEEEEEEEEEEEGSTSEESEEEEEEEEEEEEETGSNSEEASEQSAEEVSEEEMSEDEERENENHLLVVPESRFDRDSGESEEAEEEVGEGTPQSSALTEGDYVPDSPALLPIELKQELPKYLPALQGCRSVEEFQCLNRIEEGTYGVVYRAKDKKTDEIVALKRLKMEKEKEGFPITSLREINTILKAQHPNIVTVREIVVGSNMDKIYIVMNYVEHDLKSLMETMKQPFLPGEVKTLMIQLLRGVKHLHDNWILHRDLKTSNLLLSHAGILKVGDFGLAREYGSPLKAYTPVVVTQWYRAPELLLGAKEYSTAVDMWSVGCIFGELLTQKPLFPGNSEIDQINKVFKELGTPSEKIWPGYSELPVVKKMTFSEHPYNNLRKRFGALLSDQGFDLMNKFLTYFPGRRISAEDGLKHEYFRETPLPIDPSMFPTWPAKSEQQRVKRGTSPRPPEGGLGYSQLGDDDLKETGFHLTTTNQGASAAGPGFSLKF

[4] = target: T2, Serine/threonine-protein kinase Nek9 (Homo sapiens) (UniProt Q8TD19); test: Selectivity interaction (ActivX KiNativ screen (kinase selectivity in THP-1 cell lysates)) EUB0000639a NEK9; format: subcellular; details: lysate, at 0.01 µM
T2 sequence (whole entry): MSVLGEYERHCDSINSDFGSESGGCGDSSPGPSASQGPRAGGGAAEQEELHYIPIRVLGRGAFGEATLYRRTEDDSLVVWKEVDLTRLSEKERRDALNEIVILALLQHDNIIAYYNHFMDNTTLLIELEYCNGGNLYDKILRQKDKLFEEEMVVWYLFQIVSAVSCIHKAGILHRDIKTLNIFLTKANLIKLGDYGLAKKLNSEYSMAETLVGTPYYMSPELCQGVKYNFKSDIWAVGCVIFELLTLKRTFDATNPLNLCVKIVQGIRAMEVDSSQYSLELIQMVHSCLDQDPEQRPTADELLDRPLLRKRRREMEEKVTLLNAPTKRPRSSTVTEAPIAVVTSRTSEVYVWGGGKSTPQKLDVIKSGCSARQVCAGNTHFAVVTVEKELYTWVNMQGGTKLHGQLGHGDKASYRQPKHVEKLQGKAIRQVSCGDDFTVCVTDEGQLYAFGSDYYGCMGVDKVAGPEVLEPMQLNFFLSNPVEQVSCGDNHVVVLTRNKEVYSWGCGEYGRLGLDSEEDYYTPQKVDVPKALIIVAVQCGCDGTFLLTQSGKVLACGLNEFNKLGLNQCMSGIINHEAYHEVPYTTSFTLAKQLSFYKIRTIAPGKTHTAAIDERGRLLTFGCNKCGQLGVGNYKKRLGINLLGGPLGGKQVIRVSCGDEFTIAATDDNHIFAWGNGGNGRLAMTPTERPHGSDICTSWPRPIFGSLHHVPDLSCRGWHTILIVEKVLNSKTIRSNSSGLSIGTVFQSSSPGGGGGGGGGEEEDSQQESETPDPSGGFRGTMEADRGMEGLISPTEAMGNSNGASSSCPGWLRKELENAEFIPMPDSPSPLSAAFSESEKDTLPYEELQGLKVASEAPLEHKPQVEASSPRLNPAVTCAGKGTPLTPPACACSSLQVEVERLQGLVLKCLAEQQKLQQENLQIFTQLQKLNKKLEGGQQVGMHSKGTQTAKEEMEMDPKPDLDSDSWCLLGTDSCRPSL

[5] = target: Mitogen-activated protein kinase kinase kinase kinase 5 (Homo sapiens) (UniProt Q9Y4K4); test: Selectivity interaction (ActivX KiNativ screen (kinase selectivity in THP-1 cell lysates)) EUB0000639a MAP4K5; format: subcellular; details: lysate
Mitogen-activated protein kinase kinase kinase kinase 5 (Homo sapiens), sequence (Q9Y4K4 whole entry, looked up): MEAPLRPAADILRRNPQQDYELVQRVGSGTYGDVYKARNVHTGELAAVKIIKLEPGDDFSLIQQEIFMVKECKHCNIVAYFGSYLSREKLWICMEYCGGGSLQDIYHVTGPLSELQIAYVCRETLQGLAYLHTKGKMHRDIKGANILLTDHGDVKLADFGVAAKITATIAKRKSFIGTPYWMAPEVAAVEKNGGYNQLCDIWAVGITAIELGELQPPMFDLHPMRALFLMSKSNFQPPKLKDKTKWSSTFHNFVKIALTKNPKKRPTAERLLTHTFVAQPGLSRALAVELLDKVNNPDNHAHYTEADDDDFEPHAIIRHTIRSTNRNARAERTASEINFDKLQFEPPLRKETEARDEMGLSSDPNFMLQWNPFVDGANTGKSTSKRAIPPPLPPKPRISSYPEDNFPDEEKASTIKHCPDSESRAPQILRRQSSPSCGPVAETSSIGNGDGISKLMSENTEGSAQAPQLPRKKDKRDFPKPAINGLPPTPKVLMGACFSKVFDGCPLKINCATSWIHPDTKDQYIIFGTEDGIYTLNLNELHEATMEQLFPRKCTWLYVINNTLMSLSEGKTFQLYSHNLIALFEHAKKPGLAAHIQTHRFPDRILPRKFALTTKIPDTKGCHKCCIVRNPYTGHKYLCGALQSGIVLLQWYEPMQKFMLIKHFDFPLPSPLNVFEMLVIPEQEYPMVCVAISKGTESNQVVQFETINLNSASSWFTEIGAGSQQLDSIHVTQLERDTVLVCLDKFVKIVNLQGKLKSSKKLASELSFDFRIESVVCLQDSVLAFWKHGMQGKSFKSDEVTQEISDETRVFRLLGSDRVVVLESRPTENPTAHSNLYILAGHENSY

[6] = target: Tyrosine-protein kinase CSK (Homo sapiens) (UniProt P41240); test: Selectivity interaction (KinomeScan (DiscoverX)) EUB0000666a CSK; details: at 10 µM
Tyrosine-protein kinase CSK (Homo sapiens), sequence (P41240 2-450 limits assumed): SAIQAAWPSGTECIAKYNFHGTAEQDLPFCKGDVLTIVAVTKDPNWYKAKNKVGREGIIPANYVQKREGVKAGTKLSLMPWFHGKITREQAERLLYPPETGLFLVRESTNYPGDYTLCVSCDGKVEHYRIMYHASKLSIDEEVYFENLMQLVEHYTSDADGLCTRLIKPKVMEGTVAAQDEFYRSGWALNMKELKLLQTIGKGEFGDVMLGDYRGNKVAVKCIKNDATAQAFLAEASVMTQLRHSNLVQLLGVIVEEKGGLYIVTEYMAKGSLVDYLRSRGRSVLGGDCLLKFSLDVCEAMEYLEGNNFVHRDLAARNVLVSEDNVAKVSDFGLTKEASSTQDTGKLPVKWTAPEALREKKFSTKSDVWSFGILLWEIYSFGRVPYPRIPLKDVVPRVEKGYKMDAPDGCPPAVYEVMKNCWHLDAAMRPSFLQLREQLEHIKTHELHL

[7] = target: LIM domain kinase 2 (Homo sapiens) (UniProt P53671); test: Selectivity interaction (KinomeScan (DiscoverX)) EUB0000695a LIMK2; details: at 100 nM
LIM domain kinase 2 (Homo sapiens), sequence (P53671 whole entry, looked up, the tested form may be a part): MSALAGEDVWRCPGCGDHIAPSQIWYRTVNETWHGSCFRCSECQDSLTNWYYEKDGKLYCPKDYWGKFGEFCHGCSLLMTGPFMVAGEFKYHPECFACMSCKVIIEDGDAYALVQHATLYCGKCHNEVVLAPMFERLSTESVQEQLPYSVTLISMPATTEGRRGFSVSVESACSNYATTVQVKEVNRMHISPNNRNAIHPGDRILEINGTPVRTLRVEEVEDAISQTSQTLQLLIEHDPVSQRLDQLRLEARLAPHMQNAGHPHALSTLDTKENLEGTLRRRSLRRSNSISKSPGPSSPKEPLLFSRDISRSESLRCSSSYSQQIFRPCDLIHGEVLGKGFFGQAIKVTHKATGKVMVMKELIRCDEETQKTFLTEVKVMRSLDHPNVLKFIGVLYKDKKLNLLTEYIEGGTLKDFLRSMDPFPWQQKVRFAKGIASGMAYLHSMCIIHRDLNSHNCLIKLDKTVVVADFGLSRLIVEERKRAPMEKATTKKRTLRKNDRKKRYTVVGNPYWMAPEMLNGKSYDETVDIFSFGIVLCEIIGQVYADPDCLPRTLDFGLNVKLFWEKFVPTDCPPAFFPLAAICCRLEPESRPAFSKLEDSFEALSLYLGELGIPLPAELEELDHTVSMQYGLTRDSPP

Serine/threonine-protein kinase SIK3 (Homo sapiens), sequence (Q9Y2K2 whole entry, looked up): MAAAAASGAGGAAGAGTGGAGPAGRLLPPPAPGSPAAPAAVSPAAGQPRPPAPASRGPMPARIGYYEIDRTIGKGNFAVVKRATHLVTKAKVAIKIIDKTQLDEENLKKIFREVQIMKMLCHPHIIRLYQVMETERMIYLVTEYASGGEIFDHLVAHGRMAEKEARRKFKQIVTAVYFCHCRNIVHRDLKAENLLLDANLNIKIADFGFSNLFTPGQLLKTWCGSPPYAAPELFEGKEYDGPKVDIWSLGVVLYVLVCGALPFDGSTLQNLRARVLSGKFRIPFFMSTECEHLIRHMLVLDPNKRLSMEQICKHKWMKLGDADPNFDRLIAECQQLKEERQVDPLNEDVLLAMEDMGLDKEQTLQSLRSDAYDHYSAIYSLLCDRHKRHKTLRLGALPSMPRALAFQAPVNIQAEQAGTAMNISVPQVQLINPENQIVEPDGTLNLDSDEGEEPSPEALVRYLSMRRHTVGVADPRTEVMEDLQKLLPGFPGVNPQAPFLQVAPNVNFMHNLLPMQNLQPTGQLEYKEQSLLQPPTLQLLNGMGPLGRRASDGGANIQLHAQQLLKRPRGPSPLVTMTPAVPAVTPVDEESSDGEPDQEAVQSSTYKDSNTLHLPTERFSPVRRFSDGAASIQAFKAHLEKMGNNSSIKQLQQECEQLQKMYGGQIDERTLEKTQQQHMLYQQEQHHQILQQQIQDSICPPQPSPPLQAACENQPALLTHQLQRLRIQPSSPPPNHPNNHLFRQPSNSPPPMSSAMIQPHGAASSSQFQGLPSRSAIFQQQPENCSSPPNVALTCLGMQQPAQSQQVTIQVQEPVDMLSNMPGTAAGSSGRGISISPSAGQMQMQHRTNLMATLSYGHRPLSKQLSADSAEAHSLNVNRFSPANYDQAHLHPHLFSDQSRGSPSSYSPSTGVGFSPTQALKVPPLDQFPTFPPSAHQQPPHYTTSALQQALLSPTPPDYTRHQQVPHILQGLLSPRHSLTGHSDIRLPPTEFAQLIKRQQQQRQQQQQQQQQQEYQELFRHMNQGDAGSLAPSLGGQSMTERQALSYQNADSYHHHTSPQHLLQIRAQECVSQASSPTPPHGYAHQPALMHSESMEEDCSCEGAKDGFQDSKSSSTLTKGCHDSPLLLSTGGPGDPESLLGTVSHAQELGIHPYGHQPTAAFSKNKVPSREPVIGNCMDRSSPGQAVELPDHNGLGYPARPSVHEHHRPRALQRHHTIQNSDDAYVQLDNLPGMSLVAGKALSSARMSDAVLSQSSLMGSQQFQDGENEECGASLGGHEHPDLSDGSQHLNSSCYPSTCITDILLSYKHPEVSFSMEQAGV
TRAF2 and NCK-interacting protein kinase (Homo sapiens), sequence (Q9UKE5 whole entry, looked up): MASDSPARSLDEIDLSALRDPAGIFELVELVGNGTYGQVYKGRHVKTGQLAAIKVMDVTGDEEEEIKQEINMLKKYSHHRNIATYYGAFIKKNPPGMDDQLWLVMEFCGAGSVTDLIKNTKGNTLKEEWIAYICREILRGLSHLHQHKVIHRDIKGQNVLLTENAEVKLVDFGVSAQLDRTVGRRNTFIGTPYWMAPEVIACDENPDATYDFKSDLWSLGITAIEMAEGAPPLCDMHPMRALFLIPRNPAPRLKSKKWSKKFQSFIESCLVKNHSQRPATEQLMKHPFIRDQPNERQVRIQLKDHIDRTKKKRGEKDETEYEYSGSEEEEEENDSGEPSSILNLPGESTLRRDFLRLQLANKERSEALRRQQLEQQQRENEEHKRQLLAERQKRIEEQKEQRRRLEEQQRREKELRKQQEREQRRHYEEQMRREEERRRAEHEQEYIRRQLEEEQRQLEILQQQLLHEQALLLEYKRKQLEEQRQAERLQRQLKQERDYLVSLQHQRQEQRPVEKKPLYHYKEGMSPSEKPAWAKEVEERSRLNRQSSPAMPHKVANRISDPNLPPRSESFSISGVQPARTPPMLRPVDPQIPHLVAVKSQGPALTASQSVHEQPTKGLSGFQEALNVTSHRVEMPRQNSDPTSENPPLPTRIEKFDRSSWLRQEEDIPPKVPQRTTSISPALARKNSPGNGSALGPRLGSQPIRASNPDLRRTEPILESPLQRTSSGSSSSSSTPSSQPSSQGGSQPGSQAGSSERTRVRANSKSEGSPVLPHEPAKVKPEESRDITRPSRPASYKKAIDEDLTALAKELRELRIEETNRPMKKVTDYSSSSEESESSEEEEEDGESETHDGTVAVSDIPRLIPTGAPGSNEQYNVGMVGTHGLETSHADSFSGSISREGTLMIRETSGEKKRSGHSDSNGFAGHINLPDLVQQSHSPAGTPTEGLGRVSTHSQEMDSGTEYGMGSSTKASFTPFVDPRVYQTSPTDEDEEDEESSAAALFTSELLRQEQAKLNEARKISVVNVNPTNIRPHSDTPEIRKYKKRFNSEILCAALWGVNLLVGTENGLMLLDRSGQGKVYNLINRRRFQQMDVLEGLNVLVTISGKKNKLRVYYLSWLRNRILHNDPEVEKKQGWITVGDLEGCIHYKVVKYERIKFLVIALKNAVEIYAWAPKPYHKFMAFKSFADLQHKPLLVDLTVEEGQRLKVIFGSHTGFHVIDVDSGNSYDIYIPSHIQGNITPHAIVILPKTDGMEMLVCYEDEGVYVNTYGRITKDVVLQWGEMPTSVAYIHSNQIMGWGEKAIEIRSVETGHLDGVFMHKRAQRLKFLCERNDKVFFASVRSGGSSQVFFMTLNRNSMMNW

`CN(C)C/C=C/C(=O)Nc1ccc(C(=O)N2CCCC(Nc3ncc(Cl)c(-c4c[nH]c5ccccc45)n3)C2)cc1` (stereo not given) showed a % of control [1] of 99%.

`Cc1cc([C@@H](C)Nc2ccccc2C(=O)O)c2nc(N3CCOCC3)cc(=O)n2c1` [AZD-6482] showed a % of control [2] of 98%.

`CC[C@@H]1[C@H](F)C(=O)N[C@@H]1COc1nccc2cc(C(N)=O)c(OC)cc12` [ZIMLOVISERTIB] was tested, and the % of inhibition ([3]; at 0.01 µM) was 10.4%, the % of inhibition ([3]; at 0.04 µM) was -11.1% and the % of inhibition ([3]; at 0.2 µM) was 2.6%. It also gave a % of inhibition ([3]; at 1 µM) of 7.8%, a % of inhibition ([3]; at 5 µM) of 18.7% and a % of inhibition [4] of 1.1%. It also gave a % of inhibition ([5]; at 0.01 µM) of -0.9%, a % of inhibition ([5]; at 0.04 µM) of 0% and a % of inhibition ([5]; at 0.2 µM) of 3.2%. For the same molecule, the % of inhibition ([5]; at 1 µM) was 9.9% and the % of inhibition ([5]; at 5 µM) was 11.8%.

With `O=C(NOC[C@H](O)CO)c1ccc(F)c(F)c1Nc1ccc(I)cc1F` the % of control [6] was 100%.

Molecule `Cc1cc(F)c(C(=O)Nc2cccc(-c3nncn3C(C)C)n2)cc1-n1cnc(C2CC2)c1` has a % of control [7] of 89%.

From ChEMBL document CHEMBL5465560, “Selectivity Literature for EUbOPEN Chemogenomic Library” (2024)
